Reference: US20230024302A1, “2,3,5-TRISUBSTITUTED PYRAZOLO[1,5-A]PYRIMIDINE COMPOUNDS” (Arcus Biosciences, Inc., priority 2019, published 2023)
Read-outs that look alike come from different tables or passages of the source.

Assays:
PI3Kγ (p120γ) = target: T1, PI3Kγ (p120γ) (Homo sapiens, UniProt P48736); experiment: Inhibition of PI3K kinase activity (ADP Glo), PI3Kγ; conditions: read-out: biochemical potency (PI3Kγ IC50)
T1 construct: purchased Promega V1761
Method in brief: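 Recombinant p120γ (8 nM, 2× stock) was preincubated with compound for 1 h at rt in HEPES pH 7.4, NaCl, MgCl2 and 0.05% BSA. Reaction was started with PIP2 (0.1 mg/ml, 2×) and ATP (50 μM, 2×) and ran 60 min at rt. ADP formed was read by ADP-Glo luminescence, and IC50 came from a 4-parameter fit.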

PI3Kγ = target: T2, PI3Kγ (Homo sapiens, UniProt P48736); experiment: PI3Kγ cellular assay in THP-1 cells (AKT pS473 AlphaLISA); type: cell-based
T2 construct: host or cells: THP-1
Method in brief: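 Serum-starved THP-1 cells (1.8×10^5/well, serum-free DMEM) treated with compounds from 4 nM to 30 μM in 2% DMSO, then stimulated and lysed.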

[1] = AKT pS473, read-out: cellular potency (PI3Kγ IC50)
[2] = Table 6, rhMCP-1 stimulated AKT pS473, read-out: cellular potency (PI3Kγ IC50)

T1 sequence (P48736 whole entry): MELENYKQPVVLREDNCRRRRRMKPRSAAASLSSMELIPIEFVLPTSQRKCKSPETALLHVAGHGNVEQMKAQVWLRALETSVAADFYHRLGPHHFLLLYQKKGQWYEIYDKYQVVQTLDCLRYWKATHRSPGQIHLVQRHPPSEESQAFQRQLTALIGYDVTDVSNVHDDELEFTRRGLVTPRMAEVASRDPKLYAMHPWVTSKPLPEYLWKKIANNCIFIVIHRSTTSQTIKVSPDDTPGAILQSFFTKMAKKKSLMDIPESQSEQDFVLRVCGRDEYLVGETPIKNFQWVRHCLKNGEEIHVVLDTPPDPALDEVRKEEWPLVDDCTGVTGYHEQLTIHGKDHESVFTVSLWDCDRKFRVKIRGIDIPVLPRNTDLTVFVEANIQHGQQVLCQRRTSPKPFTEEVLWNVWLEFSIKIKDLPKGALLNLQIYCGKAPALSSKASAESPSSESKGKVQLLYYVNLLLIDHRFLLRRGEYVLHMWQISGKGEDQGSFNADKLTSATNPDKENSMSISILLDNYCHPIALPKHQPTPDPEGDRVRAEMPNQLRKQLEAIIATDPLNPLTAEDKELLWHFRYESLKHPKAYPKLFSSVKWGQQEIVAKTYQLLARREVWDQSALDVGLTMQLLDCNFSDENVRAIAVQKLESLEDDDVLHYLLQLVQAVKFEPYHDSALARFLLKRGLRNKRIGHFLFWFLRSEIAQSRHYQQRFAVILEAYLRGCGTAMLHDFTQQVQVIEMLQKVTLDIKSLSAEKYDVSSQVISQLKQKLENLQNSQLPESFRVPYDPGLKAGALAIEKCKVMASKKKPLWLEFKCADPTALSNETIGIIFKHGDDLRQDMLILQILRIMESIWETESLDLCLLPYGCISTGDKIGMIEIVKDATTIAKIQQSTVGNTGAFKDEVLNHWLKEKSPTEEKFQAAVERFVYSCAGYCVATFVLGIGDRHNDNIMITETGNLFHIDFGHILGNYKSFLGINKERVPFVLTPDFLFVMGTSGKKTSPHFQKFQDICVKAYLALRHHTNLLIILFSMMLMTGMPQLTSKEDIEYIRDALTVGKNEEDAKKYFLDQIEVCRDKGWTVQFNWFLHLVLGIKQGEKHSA
T2 sequence (P48736 whole entry): as above

IC50 (PI3Kγ (p120γ)) | IC50 (PI3Kγ; [1]) | IC50 (PI3Kγ (p120γ); Table 6, p120γ) | IC50 (PI3Kγ; [2]) | Compound
< 100 nM | 100 to 1000 nM |  |  | C[C@@H](C1CC1)N1Cc2cc(-c3ccn4nc(N)c(C(=O)Nc5cccc(F)c5)c4n3)cc(NS(C)(=O)=O)c2C1=O [Example 378]
< 100 nM | > 1000 nM |  |  | C[C@@H](C1CC1)N1Cc2cc(-c3ccn4nc(N)c(C(=O)Nc5ccnc(CO)c5)c4n3)cc(NS(C)(=O)=O)c2C1=O [Example 379]
< 100 nM | 100 to 1000 nM |  |  | COc1ccc(NC(=O)c2c(N)nn3ccc(-c4cc5c(c(NS(C)(=O)=O)c4)C(=O)N([C@@H](C)C4CC4)C5)nc23)cc1 [Example 380]
< 100 nM | 100 to 1000 nM |  |  | C[C@@H](C1CC1)N1Cc2cc(-c3ccn4nc(N)c(C(=O)NCC5(O)CC5)c4n3)cc(NS(C)(=O)=O)c2C1=O [Example 381]
< 100 nM | 100 to 1000 nM |  |  | C[C@H](NC(=O)c1c(N)nn2ccc(-c3cc4c(c(NS(C)(=O)=O)c3)C(=O)N([C@@H](C)C3CC3)C4)nc12)C(N)=O [Example 382]
< 100 nM | 100 to 1000 nM |  |  | C[C@@H](C1CC1)N1Cc2cc(-c3ccn4nc(N)c(C(=O)NCCO)c4n3)cc(NS(C)(=O)=O)c2C1=O [Example 383]
< 100 nM | 100 to 1000 nM |  |  | C[C@@H](C1CC1)N1Cc2cc(-c3ccn4nc(N)c(C(=O)N[C@@H]5CCCC[C@H]5O)c4n3)cc(NS(C)(=O)=O)c2C1=O [Example 384]
< 100 nM | 100 to 1000 nM |  |  | COC[C@@H](C)NC(=O)c1c(N)nn2ccc(-c3cc4c(c(NS(C)(=O)=O)c3)C(=O)N([C@@H](C)C3CC3)C4)nc12 [Example 385]
< 100 nM | 100 to 1000 nM |  |  | C[C@@H](C1CC1)N1Cc2cc(-c3ccn4nc(N)c(C(=O)Nc5cccc(C#N)c5)c4n3)cc(NS(C)(=O)=O)c2C1=O [Example 386]
< 100 nM | 100 to 1000 nM |  |  | COc1cncc(NC(=O)c2c(N)nn3ccc(-c4cc5c(c(NS(C)(=O)=O)c4)C(=O)N([C@@H](C)C4CC4)C5)nc23)c1 [Example 387]
< 100 nM | 100 to 1000 nM |  |  | C[C@@H](C1CC1)N1Cc2cc(-c3ccn4nc(N)c(C(=O)Nc5ccc(F)cc5)c4n3)cc(NS(C)(=O)=O)c2C1=O [Example 388]
< 100 nM | 100 to 1000 nM |  |  | C[C@@H](C1CC1)N1Cc2cc(-c3ccn4nc(N)c(C(=O)Nc5ccc(CC(F)(F)F)nc5)c4n3)cc(NS(C)(=O)=O)c2C1=O [Example 389]
< 100 nM | 100 to 1000 nM |  |  | COCC(C)(C)NC(=O)c1c(N)nn2ccc(-c3cc4c(c(NS(C)(=O)=O)c3)C(=O)N([C@@H](C)C3CC3)C4)nc12 [Example 390]
< 100 nM | 100 to 1000 nM |  |  | Cc1ccccc1NC(=O)c1c(N)nn2ccc(-c3cc4c(c(NS(C)(=O)=O)c3)C(=O)N([C@@H](C)C3CC3)C4)nc12 [Example 391]
< 100 nM | > 1000 nM |  |  | C[C@@H](C1CC1)N1Cc2cc(-c3ccn4nc(N)c(C(=O)Nc5ccc(Cl)cc5)c4n3)cc(NS(C)(=O)=O)c2C1=O [Example 392]
< 100 nM | 100 to 1000 nM |  |  | C[C@@H](C1CC1)N1Cc2cc(-c3ccn4nc(N)c(C(=O)Nc5ccc(C#N)cc5)c4n3)cc(NS(C)(=O)=O)c2C1=O [Example 393]
< 100 nM | 100 to 1000 nM |  |  | C[C@@H](C1CC1)N1Cc2cc(-c3ccn4nc(N)c(C(=O)NC5CC5(C)C)c4n3)cc(NS(C)(=O)=O)c2C1=O (some centres unmarked) [Example 394]
< 100 nM | 100 to 1000 nM |  |  | COC(=O)c1ccc(NC(=O)c2c(N)nn3ccc(-c4cc5c(c(NS(C)(=O)=O)c4)C(=O)N([C@@H](C)C4CC4)C5)nc23)cn1 [Example 395]
< 100 nM | 100 to 1000 nM |  |  | C[C@@H](C1CC1)N1Cc2cc(-c3ccn4nc(N)c(C(=O)Nc5ccccn5)c4n3)cc(NS(C)(=O)=O)c2C1=O [Example 396]
< 100 nM | 100 to 1000 nM |  |  | C[C@@H](C1CC1)N1Cc2cc(-c3ccn4nc(N)c(C(=O)Nc5ccccc5F)c4n3)cc(NS(C)(=O)=O)c2C1=O [Example 397]
< 100 nM | > 1000 nM |  |  | COc1ccccc1NC(=O)c1c(N)nn2ccc(-c3cc4c(c(NS(C)(=O)=O)c3)C(=O)N([C@@H](C)C3CC3)C4)nc12 [Example 398]
< 100 nM | 100 to 1000 nM |  |  | CC(C)[C@H](CO)NC(=O)c1c(N)nn2ccc(-c3cc4c(c(NS(C)(=O)=O)c3)C(=O)N([C@@H](C)C(F)(F)F)C4)nc12 [Example 399]
< 100 nM | 100 to 1000 nM |  |  | CC(C)[C@H](CO)NC(=O)c1c(N)nn2ccc(-c3cc4c(c(NS(C)(=O)=O)c3)C(=O)N([C@@H](C3CC3)C(F)(F)F)C4)nc12 [Example 400]
< 100 nM | 100 to 1000 nM |  |  | C[C@H](N1Cc2cc(-c3ccn4nc(N)c(C(=O)Nc5cccnc5)c4n3)cc(NS(C)(=O)=O)c2C1=O)C(F)(F)F [Example 401]
< 100 nM | 100 to 1000 nM |  |  | CC(C)[C@H](N1Cc2cc(-c3ccn4nc(N)c(C(=O)NC5CC5)c4n3)cc(NS(C)(=O)=O)c2C1=O)C(F)(F)F [Example 402]

IC50 (PI3Kγ (p120γ)) | IC50 (PI3Kγ; [1]) | IC50 (PI3Kγ (p120γ); Table 6, p120γ) | IC50 (PI3Kγ; [2]) | Compound
< 100 nM | 100 to 1000 nM |  |  | C[C@H](N1Cc2cc(-c3ccn4nc(N)c(C(=O)Nc5ccccc5)c4n3)cc(NS(C)(=O)=O)c2C1=O)C(F)(F)F [Example 403]
 |  | < 100 nM | 100 to 1000 nM | C[C@H](CO)NC(=O)c1c(N)nn2ccc(-c3cc4c(c(N(C)S(C)(=O)=O)c3)C(=O)N([C@@H](C)C3CC3)C4)nc12 [Example 408]
 |  | < 100 nM | 100 to 1000 nM | C[C@@H](C1CC1)N1Cc2cc(-c3ccn4nc(N)c(C(=O)NC5CC5)c4n3)cc(NS(=O)(=O)N3CCOCC3)c2C1=O [Example 409]
 |  | < 100 nM | < 100 nM | C[C@@H](C1CC1)N1Cc2cc(-c3ccn4nc(N)c(C(=O)NC5CC5)c4n3)cc(NS(=O)(=O)N(C)C)c2C1=O [Example 410]
 |  | < 100 nM | 100 to 1000 nM | C[C@@H](C1CC1)N1Cc2cc(-c3ccn4nc(N)c(C(=O)N[C@H]5CC[C@H](C(=O)O)CC5)c4n3)cc(OC(F)(F)F)c2C1=O [Example 411]
 |  | < 100 nM | 100 to 1000 nM | C[C@@H](C1CC1)N1Cc2cc(-c3ccn4nc(N)c(C(=O)N[C@@H]5CCC(=O)NC5)c4n3)cc(OC(F)(F)F)c2C1=O [Example 412]
 |  | < 100 nM | 100 to 1000 nM | C[C@@H](C1CC1)N1Cc2cc(-c3ccn4nc(N)c(C(=O)N[C@H]5CCC(=O)NC5)c4n3)cc(OC(F)(F)F)c2C1=O [Example 413]
 |  | < 100 nM | 100 to 1000 nM | C[C@@H](C1CC1)N1Cc2cc(-c3ccn4nc(N)c(C(=O)NCc5cccnc5)c4n3)cc(OC(F)(F)F)c2C1=O [Example 414]
 |  | < 100 nM | 100 to 1000 nM | C[C@H](N1Cc2cc(-c3ccn4nc(N)c(C(=O)NC5CC5)c4n3)cc(OC(F)(F)F)c2C1=O)C(F)(F)F [Example 415]
 |  | < 100 nM | 100 to 1000 nM | Nc1nn2ccc(-c3cc4c(c(OC(F)(F)F)c3)C(=O)N([C@@H](CO)C3CC3)C4)nc2c1C(=O)NC1CC1 [Example 416]
 |  | < 100 nM | > 1000 nM | C[C@@H](C1CC1)N1Cc2cc(-c3ccn4nc(N)c(C(=O)N[C@H]5CNC[C@H]5O)c4n3)cc(OC(F)(F)F)c2C1=O [Example 417]
 |  | < 100 nM | > 1000 nM | C[C@@H](C1CC1)N1Cc2cc(-c3ccn4nc(N)c(C(=O)N[C@@H]5CNC[C@H]5O)c4n3)cc(OC(F)(F)F)c2C1=O [Example 418]
 |  | < 100 nM | 100 to 1000 nM | C[C@@H](C1CC1)N1Cc2cc(-c3ccn4nc(N)c(C(=O)Nc5ccc(C(C)(C)O)cc5)c4n3)cc(OC(F)(F)F)c2C1=O [Example 419]
 |  | < 100 nM | 100 to 1000 nM | C[C@@H](C1CC1)N1Cc2cc(-c3ccn4nc(N)c(C(=O)Nc5cccc(C(C)(C)O)c5)c4n3)cc(OC(F)(F)F)c2C1=O [Example 420]
 |  | < 100 nM | 100 to 1000 nM | C[C@@H](C1CC1)N1Cc2cc(-c3ccn4nc(N)c(C(=O)N[C@H]5CCCNC5)c4n3)cc(OC(F)(F)F)c2C1=O [Example 421]
 |  | < 100 nM | 100 to 1000 nM | C[C@@H](C1CC1)N1Cc2cc(-c3ccn4nc(N)c(C(=O)Nc5cnccc5N)c4n3)cc(OC(F)(F)F)c2C1=O [Example 422]
 |  | < 100 nM | 100 to 1000 nM | COc1ccc(NC(=O)c2c(N)nn3ccc(-c4cc5c(c(OC(F)(F)F)c4)C(=O)N([C@@H](C)C4CC4)C5)nc23)cn1 [Example 423]
 |  | < 100 nM | > 1000 nM | C[C@@H](C1CC1)N1Cc2cc(-c3ccn4nc(N)c(C(=O)N[C@H]5CNC[C@@H]5O)c4n3)cc(OC(F)(F)F)c2C1=O [Example 424]
 |  | < 100 nM | > 1000 nM | C[C@@H](C1CC1)N1Cc2cc(-c3ccn4nc(N)c(C(=O)Nc5ccccc5C(C)(C)O)c4n3)cc(OC(F)(F)F)c2C1=O [Example 425]
 |  | < 100 nM | 100 to 1000 nM | C[C@@H](C1CC1)N1Cc2cc(-c3ccn4nc(N)c(C(=O)N[C@H]5CCC[C@@H](N)C5)c4n3)cc(OC(F)(F)F)c2C1=O [Example 426]
 |  | < 100 nM | > 1000 nM | C[C@@H](C1CC1)N1Cc2cc(-c3ccn4nc(N)c(C(=O)Nc5ccccc5)c4n3)cc(OC(F)(F)F)c2C1=O [Example 427]
 |  | < 100 nM | > 1000 nM | C[C@@H](C1CC1)N1Cc2cc(-c3ccn4nc(N)c(C(=O)Nc5ccnc(C(F)(F)F)c5)c4n3)cc(OC(F)(F)F)c2C1=O [Example 428]
 |  | < 100 nM | < 100 nM | Cc1nn(C)cc1NC(=O)c1c(N)nn2ccc(-c3cc4c(c(OC(F)F)c3)C(=O)N([C@@H](C)C3CC3)C4)nc12 [Example 429]
 |  | < 100 nM | < 100 nM | C[C@@H](C1CC1)N1Cc2cc(-c3ccn4nc(N)c(C(=O)N[C@H]5C[C@](C)(O)C5)c4n3)cc(OC(F)F)c2C1=O [Example 430]
